In US20060024691A1, “Novel pathways in the etiology of cancer” (Buck Institute for Age Research, priority 2004, published 2006):
Like-named read-outs stand apart in the source and are kept apart here.

Tests used:
ERK1/ERK2 = test: MAPK activation: ERK1/ERK2 phosphorylation, Western blot; assay type: cell-based, human; conditions: MCF7 cells, 30 minutes
Method: (§1) Human breast cancer cell lines MCF7 and T47D were obtained from the American Type Culture Collection (ATCC). MCF7 cells were maintained in Dulbecco's Modification of Eagle's Medium (Cellgro) supplemented with 10% fetal bovine serum (Cellgro), 1% penicillin/streptomycin (Cellgro) and 10 μg/ml insulin (Sigma). T47D cells were maintained in RPMI (Cellgro) supplemented with 10% fetal bovine serum, 1% penicillin/streptomycin and 10 μg/ml insulin. Treatment conditions for both cell lines involved plating ˜1×10^6 cells in normal media onto 10 cm dishes, attachment and growth for 24 hours followed by a change to estrogen-free culture conditions (phenol red-free DME H-16 supplemented with 10% charcoal stripped serum, 1% penicillin/streptomycin and 10 μg/ml insulin) for an additional 24 hours. Cells were then treated as indicated for 30 minutes before extract preparation. Indicated conditions involved 30 minute pretreatments.
(§2) For preparation of high-salt nuclear extracts (nucleoplasm), isolated nuclei were resuspended for 20 minutes in ice cold extraction buffer (0.4 M NaCl, 25 mM Tris pH 7.5, 1 mM DTT, 20% glycerol, 10 mM NaFl and min-complete protease inhibitors (Roche)) followed by a 4° C. centrifugation at 16,000×g for 15 minutes.
Membranes were then blocked for 30 minutes in blocking buffer (150 mM NaCl, 20 mM Tris pH 7.5, 0.3% Tween-20 and 4% Nonfat dry milk powerby weight).

[1] = test system: p50 and p65 NFκB subunits; test: Immunoblot of nuclear p50 and p65 NFκB subunits in MCF-7 cells; assay type: cell-based, human; conditions: MCF-7, menadione 100 μM × 30 min
Method: (§3) PS-341 was kindly provided by Millennium Pharmaceuticals Inc. (Cambridge, Mass.). […] For assessment of combined treatment effects on cell viability, 2×10^4 cells (MCF-7, MCF-7/HER2, BT474) grown in 24-well plates were first treated with tamoxifen (dissolved in ethanol) and/or parthenolide (dissolved in DMSO); for the combination treatment pathenolide was added 4 h before addition of tamoxifen. Cell viability was measured 18 h after tamoxifen treatment using the sulforhodamine B (SRB) assay (Skehan, et al. 1990). Briefly, cells fixed with trichloroacetic acid were stained for 30 min with 0.4% SRB dissolved in 1% acetic acid. Unbound dye was removed by four washes with 1% acetic acid, and protein-bound dye was extracted with 10 mM unbuffered Tris base [tris(hydroxymethyl)aminomethane] for determination of optical density at 564 nm.
Fractionation of control and treated cells into cytoplasmic and nuclear extracts was performed as previously described (Dignam et al., 1983), with minor modification. Cells harvested on ice were washed twice with cold PBS, scraped and resuspended in 1.0 ml hypotonic buffer (20 mM HEPES, pH 7.0; 10 mM KCl; 1 mM MgCl2; 0.1% Triton X-100; 20% glycerol; 0.5 mM DTT) containing a cocktail of protease inhibitors (Mini CompleteTM protease inhibitors, Roche Diagnostics, Mannheim, Germany). The harvested cells were Dounce homogenized on ice, the mixture centrifuged at 3,000 rpm at 4° C. (5 min), and the cytoplasmic fraction separated from the nuclear pellet which was resuspended in elution buffer (20 mM HEPES, pH 7.0; 10 mM KCl; 1 mM MgCl2; 0.42 M NaCl; 0.1% Triton X-100; 20% glycerol; 0.5 mM DTT), supplemented with protease inhibitors. After 20 min at 4° C. the buffered mixture was centrifuged at 14,000 rpm at 4° C. (10 min) to obtain solubilized nuclear extracts which were then stored in aliquots at −80° C. after protein determination (Bradford; BioRad, Hercules, Calif.) and for subsequent NFkB DNA-binding assays.
Antibodies against p50 NFκB, p65 NFκB, IκB, and β-actin proteins were commercially obtained (Santa Cruz Biotechnology, Santa Cruz, Calif.; and Abcam Inc., Cambridge, Mass.). […]; 4% SDS; 20% glycerol; and 10% 2-mercaptoethanol) and resolved by electrophoresis in 4-12% Bis-Tris SDS gradient gels in morpholinepropane sulfonic acid (MOPS) buffer. Separated proteins were transferred onto polyvinylidene difluoride membranes (Millipore Co., Billerica, Mass.), blocked with 5% non-fat milk in PBS containing 0.1% Tween-20, and membranes immunoblotted with the indicated antibodies in blocking solution. […]

ERα = conditions: estrogen-free culture, 30 min, K3 100 μM, estradiol 10 nM
Method: as §1, §2

IκBα = test: Immunoblot of cytoplasmic IκBα in MCF-7 cells; assay type: cell-based, human; conditions: MCF-7, menadione 100 μM × 30 min
Method: as §3
Fractionation of control and treated cells into cytoplasmic and nuclear extracts was performed as previously described (Dignam et al., 1983), with minor modification. Cells harvested on ice were washed twice with cold PBS, scraped and resuspended in 1.0 ml hypotonic buffer (20 mM HEPES, pH 7.0; 10 mM KCl; 1 mM MgCl2; 0.1% Triton X-100; 20% glycerol; 0.5 mM DTT) containing a cocktail of protease inhibitors (Mini CompleteTM protease inhibitors, Roche Diagnostics, Mannheim, Germany). […]

For `CC1=CC(=O)c2ccccc2C1=O` [menadione, 2-methyl-1,4-naphthoquinone], the “ERK1/ERK2 phosphorylation induced by treatment” value (ERK1/ERK2) was “high level of ERK1/ERK2 phosphorylation”, the “nuclear NFκB subunits p50 and p65 after menadione treatment” value [1] was “increases in the nuclear NFκB subunits, p50 and p65” and the “nuclear translocation of ERα” value (ERα) was “nuclear translocation of 67 kDa (wild-type) ER”. The “nuclear translocation of ERα” value (ERα; listed as K3) was “majority of this cytoplasmic ERα has translocated to the nucleus” and the “cytoplasmic levels of IκBα after menadione treatment” value (IκBα) was “reduced”.
